Test system: corticospinal neurons (CSNs/CSMNs)
Assay: Laser-capture microdissection and Illumina microarray gene expression in corticospinal neurons contralateral to stroke
Format: in vivo, rat
Method: In a separate group of animals (n=20), layer V pyramidal cells of the sensorimotor cortex were retrogradely labeled by injecting Alexa-Fluor-488-conjugated cholera toxin B subunit (CTB; 300 U/μl in sterile saline) into the cervical spinal cord. For this, animals were anesthetized with a combination of ketamine and Domitor (medetomidine) and a laminectomy was performed at the cervical level of the spinal cord (C2-C4). CTB was stereotaxically delivered into four sites lateral to the corticospinal tract. Injections (1.3 μl) were spaced 1 mm apart on the rostro-caudal axis, and were made 0.5 mm to the left and right of the midline. After allowing two weeks for transport of the tracer, we performed either sham surgery with no treatment (n=6) or stroke surgery combined with saline (n=3) or inosine (n=4) treatment as described above. Seven days later, animals were decapitated under transient gas anesthesia, brains were removed and rinsed in cold RPMI medium, and a tissue block containing the sensorimotor cortex was dissected and placed in OCT Tissue Tek Medium (Sakura Finetek USA Inc., CA) on dry ice within five minutes of death. Ten μm sections were cut onto precleaned Gold Seal RITE-ON glass slides (Gold Seal Prod-ucts, Portsmouth, N.H.), placed on dry ice, and rapidly stored at −80° C.
Slide-mounted sections were thawed and dehydrated in RNAse-free ethanol gradients and xylene. Retro-gradely labeled, fluorescent cortical pyramidal cells in the undamaged hemisphere were individually captured using the Arcturus VERITAS system. ≧500 cells were collected from each animal and stored in Arcturus extraction buffer at −80° C. Total RNA was extracted from cells using the Micro-to-Midi TotalRNA Purification System (Invitrogen, Carlsbad Calif.) and double-amplified using the TargetAmp 2-Round Aminoallyl-aRNA Amplification kit 1.0 (Epicentre, Madison, Wis.). Amplified RNA was checked for average fragment length using the Agilent RNA 6000 Nano LabChip kit (Agilent Technologies, Santa Clara, Calif.) and then biotinylated and hybridized (1 μg) on Illumina RatRef-12 Expression BeadChip arrays (Illumina, San Diego Calif.), querying the expression of >22,000 RefSeq-curated rat transcripts. Results were obtained from a total of 15 samples representing 6 untreated controls, 4 animals with stroke treated with saline and 5 animals with stroke treated with inosine. Slides were processed and scanned with Illumina BeadStation platform according to the manufacturer protocol.
Raw data was analyzed using Bioconductor packages (www.bioconductor.org, (Gentleman et al., 2004)). Low level quality-control analysis was performed using inter-array Pearson correlation and clustering based on variance. Two arrays (1 saline and 1 inosine-treated) were outliers and were excluded from the analysis. Data was normalized using quantile normalization, and analysis of differential expression was performed using a linear model fitting (LIMMA package, (Smyth, 2005). Differentially expressed genes were classified according to gene ontology using Bioconductor packages and online tools (DAVID, http://david.abcc.ncifcrf.gov/). Pathway analysis was carried out using Ingenuity Pathway Analysis (Ingenuity Systems, www.ingenuity.com).

## OC[C@H]1O[C@@H](n2cnc3c(O)ncnc32)[C@H](O)[C@@H]1O [inosine]
A2m ILMN_70335
  Fold-Induction Stroke, ino vs. cntrl: 4.03
  Signal Intensity Inosine: 1924
ADRP ILMN_47969
  Fold-Induction Stroke, ino vs. cntrl: 4.12
  Signal Intensity Inosine: 3202
Adn ILMN_58846
  Fold-Induction Stroke, ino vs. cntrl: 4.53
  Signal Intensity Inosine: 2287
Aif1 ILMN_47707
  Fold-Induction Stroke, ino vs. cntrl: 2.67
  Signal Intensity Inosine: 4301
Arhgdib ILMN_66176
  Fold-Induction Stroke, ino vs. cntrl: 4.08
  Signal Intensity Inosine: 3057
Arpc1b ILMN_69642
  Fold-Induction Stroke, ino vs. cntrl: 2.61
  Signal Intensity Inosine: 758
Asb2 ILMN_50991
  Fold-Induction Stroke, ino vs. cntrl: 3.27
  Signal Intensity Inosine: 615
Aurkc ILMN_69140
  Fold-Induction Stroke, ino vs. cntrl: 1.43
  Signal Intensity Inosine: 1172
Bcl2a1 ILMN_62703
  Fold-Induction Stroke, ino vs. cntrl: 3.34
  Signal Intensity Inosine: 613
Btf3 ILMN_62809
  Fold-Induction Stroke, ino vs. cntrl: 0.43
  Signal Intensity Inosine: 787
C1qb ILMN_61448
  Fold-Induction Stroke, ino vs. cntrl: 2.76
  Signal Intensity Inosine: 1832
C1qg ILMN_55502
  Fold-Induction Stroke, ino vs. cntrl: 3.66
  Signal Intensity Inosine: 2499
C2 ILMN_63608
  Fold-Induction Stroke, ino vs. cntrl: 3.12
  Signal Intensity Inosine: 4113
C4-2 ILMN_59751
  Fold-Induction Stroke, ino vs. cntrl: 2.95
  Signal Intensity Inosine: 2409
Card9 ILMN_62382
  Fold-Induction Stroke, ino vs. cntrl: 2.83
  Signal Intensity Inosine: 865
Cd68 ILMN_60003
  Fold-Induction Stroke, ino vs. cntrl: 3.88
  Signal Intensity Inosine: 2117
Cd151 ILMN_62725
  Fold-Induction Stroke, ino vs. cntrl: 1.50
  Signal Intensity Inosine: 1171
Cdk5rap2 ILMN_57761
  Fold-Induction Stroke, ino vs. cntrl: 1.68
  Signal Intensity Inosine: 1377
Chd4 ILMN_55276
  Fold-Induction Stroke, ino vs. cntrl: 1.26
  Signal Intensity Inosine: 7413
Cml1 ILMN_50957
  Fold-Induction Stroke, ino vs. cntrl: 1.08
  Signal Intensity Inosine: 275
Comt ILMN_48330
  Fold-Induction Stroke, ino vs. cntrl: 1.09
  Signal Intensity Inosine: 400
Crabp2 ILMN_48069
  Fold-Induction Stroke, ino vs. cntrl: 2.62
  Signal Intensity Inosine: 1006
Cyba ILMN_65212
  Fold-Induction Stroke, ino vs. cntrl: 4.04
  Signal Intensity Inosine: 2617
Dhrsx ILMN_56966
  Fold-Induction Stroke, ino vs. cntrl: 1.38
  Signal Intensity Inosine: 8022
Dtx2 ILMN_65350
  Fold-Induction Stroke, ino vs. cntrl: 2.24
  Signal Intensity Inosine: 1792
Esd ILMN_57701
  Fold-Induction Stroke, ino vs. cntrl: 0.44
  Signal Intensity Inosine: 1416
Ftl1 ILMN_62100
  Fold-Induction Stroke, ino vs. cntrl: 2.24
  Signal Intensity Inosine: 11718
Fxr2h ILMN_59638
  Fold-Induction Stroke, ino vs. cntrl: 1.64
  Signal Intensity Inosine: 638
Gfap ILMN_68224
  Fold-Induction Stroke, ino vs. cntrl: 2.88
  Signal Intensity Inosine: 23099
ILMN_47707, over and above inosine's effect of decreasing stroke-induced changes
  Fold-induction CSMNs: Aif1: 2.33 fold
ILMN_47889
  Fold-Induction Stroke, ino vs. cntrl, Uxs1: 0.66
ILMN_47889, inosine after stroke
  Signal Intensity, Uxs1: 2868
ILMN_48004
  Fold-Induction Stroke, ino vs. cntrl, LOC366193: 0.67
ILMN_48004, inosine after stroke
  Signal Intensity, LOC366193: 2396
ILMN_48069, over and above inosine's effect of decreasing stroke-induced changes
  Fold-induction CSMNs: Crabp2: 2.12 fold
ILMN_48088, over and above inosine's effect of decreasing stroke-induced changes
  Fold-induction CSMNs: Ifitm3: 2.74 fold
ILMN_48320
  Fold-Induction Stroke, ino vs. cntrl, Ap3s1: 0.55
ILMN_48320, inosine after stroke
  Signal Intensity, Ap3s1: 285
ILMN_48323
  Fold-Induction Stroke, ino vs. cntrl, LOC499423: 0.53
ILMN_48323, inosine after stroke
  Signal Intensity, LOC499423: 1043
ILMN_48447
  Fold-Induction Stroke, ino vs. cntrl, Wee1: 0.83
ILMN_48447, inosine after stroke
  Signal Intensity, Wee1: 367
ILMN_48507
  Fold-Induction Stroke, ino vs. cntrl, Sfrs10: 0.72

Reference: patent US8912144B2, “Method for treating stroke via administration of NEP1-40 and inosine” (Children's Medical Center Corporation, priority 2003, dated 2014)
